From patent US20250241893A1, “TREATMENT OF COGNITIVE DYSFUNCTION” (GH RESEARCH IRELAND LIMITED, priority 2022, published 2025)

How the values were obtained:
[1] = tested on: Salmonella typhimurium (TA98, TA100, TA1535 and TA1537); assay: Bacterial mutation test in Salmonella typhimurium; format: cell-based; settings: up to 5000 μg/plate, absence and presence of rat liver S-9
Experimental: These conditions included treatments at concentrations up to 5000 μg/plate (the maximum recommended concentration according to current regulatory guidelines), in the absence and in the presence of a rat liver metabolic activation system (S-9).

[2] = tested on: patients with treatment-resistant major depressive disorder (TRD); assay: Phase 1/2 clinical trial of inhaled 5-MeO-DMT in TRD; settings: for Patients with at least one ADR: Part A, n=4, all mild, resolved spontaneously
Experimental: Patients were assigned to different groups. In the context of the present invention, the group who received a single, 12 mg dose and the group who underwent an intra-day individualized dosing regimen (IDR) that allowed for multiple, escalating doses (6 mg, 12 mg and 18 mg) within a single day, driven by the intensity of the patient-reported psychedelic experience are of interest.
The data gathered include the assessment of the treated patients against several scales including the Montgomery-Asberg Depression Rating Scale (MADRS) and the Brief Psychiatric Rating Scale (BPRS).
The MADRS item that is of particular relevance to impaired concentration and memory is “concentration difficulties”. This item represents difficulties in collecting one's thoughts mounting to incapacitating lack of concentration and is scored on a scale ranging from 0 to 6. The score is 0 if the patient has no difficulties in concentrating. The score is 2 in case of occasional difficulties in collecting one's thoughts. A score of 4 is assigned in case of difficulties in concentrating and sustaining thought which reduces ability to read or hold a conversation. The score is 6 if the patient is unable to read or converse without great difficulty.
The MADRS item “reduced sleep” represents the experience of reduced duration or depth of sleep compared to the subject's own normal pattern when well. A score of 0 is assigned when the subject sleeps as usual. […] A score of 4 means that sleep is reduced or broken by at least two hours. A score of 6 means less than two or three hours sleep.
This trial was designed in two parts. Part A was an open-label, single-arm, single-dose Phase 1 trial with two dose levels (12 mg (n=4) and 18 mg (n=4)). […] The primary endpoint of Part B was to assess the effects on the severity of depression, as assessed by the proportion of patients in remission on day seven after dosing, defined as a MADRS total score of less than or equal to 10.

[3] = 12 mg n=4, sum of patient scores, 2 hours after dose, baseline 16
[4] = 12 mg n=4, sum of patient scores, day 1, baseline 13
[5] = 12 mg n=4, sum of patient scores, day 1, baseline 16
[6] = 12 mg n=4, sum of patient scores, day 7, baseline 12
[7] = 12 mg n=4, sum of patient scores, day 7, baseline 13
[8] = 12 mg n=4, sum of patient scores, day 7, baseline 16
[9] = IDR n=8, sum of patient scores, day 1, baseline 25
[10] = IDR n=8, sum of patient scores, day 7, baseline 25
[11] = IDR n=8, sum of patient scores, day 7, baseline 30

Structure (SMILES): COc1ccc2[nH]cc(CCN(C)C)c2c1 [5-MeO-DMT]
- Mutation induction [1]: did not induce mutation
- MADRS Suicidal Thoughts improvement ([2]; 12 mg n=4, sum of patient scores, 2 hours after dose, baseline 8): 5
- MADRS Inner Tension improvement ([2]; 12 mg n=4, sum of patient scores, 2 hours after dose, baseline 13): 11
- MADRS Concentration Difficulties improvement [2, 3]: 9
- MADRS Inability to Feel improvement [2, 3]: 7
- MADRS Lassitude improvement [2, 3]: 6
- MADRS Pessimistic Thoughts improvement [2, 3]: 8
- BPRS Blunted Affect improvement ([2]; 12 mg n=4, sum of patient scores, 3 hours after dose, baseline 11): 3
- BPRS Emotional Withdrawal improvement ([2]; 12 mg n=4, sum of patient scores, 3 hours after dose, baseline 13): 2
- BPRS Tension improvement ([2]; 12 mg n=4, sum of patient scores, 3 hours after dose, baseline 14): 5
- BPRS Guilt Feelings improvement ([2]; 12 mg n=4, sum of patient scores, 3 hours after dose, baseline 18): 9
- BPRS Anxiety improvement ([2]; 12 mg n=4, sum of patient scores, 3 hours after dose, baseline 25): 14
- MADRS Suicidal Thoughts improvement ([2]; 12 mg n=4, sum of patient scores, day 1, baseline 8): 3
- BPRS Blunted Affect improvement ([2]; 12 mg n=4, sum of patient scores, day 1, baseline 11): 5
- MADRS Reduced Sleep improvement ([2]; 12 mg n=4, sum of patient scores, day 1, baseline 12): 2
- BPRS Emotional Withdrawal improvement [2, 4]: 5
- MADRS Inner Tension improvement [2, 4]: 10
- BPRS Tension improvement ([2]; 12 mg n=4, sum of patient scores, day 1, baseline 14): 8
- MADRS Concentration Difficulties improvement [2, 5]: 14
- MADRS Inability to Feel improvement [2, 5]: 15
- MADRS Lassitude improvement [2, 5]: 16
- MADRS Pessimistic Thoughts improvement [2, 5]: 9
- BPRS Guilt Feelings improvement ([2]; 12 mg n=4, sum of patient scores, day 1, baseline 18): 13
- BPRS Anxiety improvement ([2]; 12 mg n=4, sum of patient scores, day 1, baseline 25): 19
- MADRS Suicidal Thoughts improvement ([2]; 12 mg n=4, sum of patient scores, day 7, baseline 8): 1
- BPRS Blunted Affect improvement ([2]; 12 mg n=4, sum of patient scores, day 7, baseline 11): 6
- MADRS Reduced Sleep improvement [2, 6]: 6
- MADRS Reduced Sleep percentage improvement [2, 6]: 50.00%
- BPRS Emotional Withdrawal improvement [2, 7]: 7
- MADRS Inner Tension improvement [2, 7]: 8
- BPRS Tension improvement ([2]; 12 mg n=4, sum of patient scores, day 7, baseline 14): 8
- MADRS Concentration Difficulties improvement [2, 8]: 13
- MADRS Inability to Feel improvement [2, 8]: 15
- MADRS Lassitude improvement [2, 8]: 13
- MADRS Pessimistic Thoughts improvement [2, 8]: 8
- BPRS Guilt Feelings improvement ([2]; 12 mg n=4, sum of patient scores, day 7, baseline 18): 13
- BPRS Anxiety improvement ([2]; 12 mg n=4, sum of patient scores, day 7, baseline 25): 19
- MADRS Suicidal Thoughts improvement ([2]; IDR n=8, sum of patient scores, 2 hours after last dose, baseline 11): 8
- MADRS Inner Tension improvement ([2]; IDR n=8, sum of patient scores, 2 hours after last dose, baseline 26): 15
- MADRS Lassitude improvement ([2]; IDR n=8, sum of patient scores, 2 hours after last dose, baseline 27): 17
- MADRS Pessimistic Thoughts improvement ([2]; IDR n=8, sum of patient scores, 2 hours after last dose, baseline 28): 21
- MADRS Concentration Difficulties improvement ([2]; IDR n=8, sum of patient scores, 2 hours after last dose, baseline 30): 19
- MADRS Inability to Feel improvement ([2]; IDR n=8, sum of patient scores, 2 hours after last dose, baseline 36): 24
- BPRS Emotional Withdrawal improvement ([2]; IDR n=8, sum of patient scores, 3 hours after last dose, baseline 13): 5
- BPRS Blunted Affect improvement ([2]; IDR n=8, sum of patient scores, 3 hours after last dose, baseline 15): 4
- BPRS Tension improvement ([2]; IDR n=8, sum of patient scores, 3 hours after last dose, baseline 16): 5
- BPRS Guilt Feelings improvement ([2]; IDR n=8, sum of patient scores, 3 hours after last dose, baseline 34): 20
- BPRS Anxiety improvement ([2]; IDR n=8, sum of patient scores, 3 hours after last dose, baseline 37): 18
- MADRS Suicidal Thoughts improvement ([2]; IDR n=8, sum of patient scores, day 1, baseline 11): 10
- BPRS Emotional Withdrawal improvement ([2]; IDR n=8, sum of patient scores, day 1, baseline 13): 5
- BPRS Blunted Affect improvement ([2]; IDR n=8, sum of patient scores, day 1, baseline 15): 7
- BPRS Tension improvement ([2]; IDR n=8, sum of patient scores, day 1, baseline 16): 5
- MADRS Reduced Sleep improvement [2, 9]: 13
- MADRS Reduced Sleep percentage improvement [2, 9]: 52.00%
- MADRS Inner Tension improvement ([2]; IDR n=8, sum of patient scores, day 1, baseline 26): 20
- MADRS Lassitude improvement ([2]; IDR n=8, sum of patient scores, day 1, baseline 27): 22
- MADRS Pessimistic Thoughts improvement ([2]; IDR n=8, sum of patient scores, day 1, baseline 28): 24
- MADRS Concentration Difficulties improvement ([2]; IDR n=8, sum of patient scores, day 1, baseline 30): 29
- BPRS Guilt Feelings improvement ([2]; IDR n=8, sum of patient scores, day 1, baseline 34): 23
- MADRS Inability to Feel improvement ([2]; IDR n=8, sum of patient scores, day 1, baseline 36): 34
- BPRS Anxiety improvement ([2]; IDR n=8, sum of patient scores, day 1, baseline 37): 21
- MADRS Suicidal Thoughts improvement ([2]; IDR n=8, sum of patient scores, day 7, baseline 11): 8
- BPRS Emotional Withdrawal improvement ([2]; IDR n=8, sum of patient scores, day 7, baseline 13): 5
- BPRS Blunted Affect improvement ([2]; IDR n=8, sum of patient scores, day 7, baseline 15): 7
- BPRS Tension improvement ([2]; IDR n=8, sum of patient scores, day 7, baseline 16): 6
- MADRS Reduced Sleep improvement [2, 10]: 16
- MADRS Reduced Sleep percentage improvement [2, 10]: 64.00%
- MADRS Inner Tension improvement ([2]; IDR n=8, sum of patient scores, day 7, baseline 26): 14
- MADRS Lassitude improvement ([2]; IDR n=8, sum of patient scores, day 7, baseline 27): 24
- MADRS Pessimistic Thoughts improvement ([2]; IDR n=8, sum of patient scores, day 7, baseline 28): 25
- MADRS Concentration Difficulties improvement [2, 11]: 21
- MADRS Concentration Difficulties percentage improvement [2, 11]: 70.00%
- BPRS Guilt Feelings improvement ([2]; IDR n=8, sum of patient scores, day 7, baseline 34): 24
- MADRS Inability to Feel improvement ([2]; IDR n=8, sum of patient scores, day 7, baseline 36): 30
- BPRS Anxiety improvement ([2]; IDR n=8, sum of patient scores, day 7, baseline 37): 20
- SAEs ([2]; Part A (12 mg and 18 mg)): No SAEs were reported
- Patients with at least one ADR ([2]; 12 mg single dose): 3 of 4
- Patients with at least one ADR ([2]; 18 mg single dose): 3 of 4
